Data as given in US4125615A, “2-[4-(P-Aminobenzyl)-1-piperazinyl]-8-ethyl-5,8-dihydro-5-oxopyrido[2,3-d]p y” (priority 1976, dated 1978).
Converted amounts (≈) assume the structure as drawn. Where two headings read alike, the source gives them in different places.

Columns and labels:
Staphylococcus aureus [1] = details: compounds of U.S. Pat. Nos. 3,887,557 and 3,950,338; cited from earlier work
[2] = system: Staphylococcus aureus No. 50774; test: In vitro antibacterial activity (MIC), Staphylococcus aureus No. 50774; assay type: cell-based
Protocol: (§1) (1) In vitro antibacterial activity against 9 strains of bacteria (Gram-positive bacteria: 4 strains, Gram-negative bacteria: 5 strains)
(§2) The test compounds were dissolved in distilled water at a concentration of 1 mg/ml with equimolar NaOH. Then graded concentrations (300, 100, 30, 10, 3 μg/ml, etc.) were made by serial dilution with distilled water. Each solution of test compound (0.5 ml) was pipetted into 4.5 ml of medium in a tube. The media used were Brain Heart Infusion Broth, pH 7.4, for Streptococcus and nutrient broth [10 g of Polypepton, 10 g of Meat Extract, and 2.5 g of NaCl in 1 liter of distilled water], pH 7.0, for the other bacteria. One drop of a bacterial suspension freshly cultured and diluted so as to contain 10 to 100 minimal growing units in the medium was inoculated into the tube. The tubes were incubated at 37° C. for 48 hours. The minimal inhibitor concentration (MIC) was defined as the lowest concentration in which no visible growth of the bacteria was detected.

Shigella sonnei EW33 = test: In vitro antibacterial activity (MIC), Shigella sonnei EW33; assay type: cell-based; details: nutrient broth pH 7.0, 37° C., 48 hours
Protocol: as §1, §2

[3] = system: Streptococcus pyogenes A65; test: In vivo efficacy against the intraperitoneal infection of mice by Streptococcus pyogenes A65; details: A65, 336 h, male ddY mice, ip infection 4 LD50, oral, twice (5 minutes and 6 hours after infection), survival after 2 weeks
Protocol: (§3) Each group of 8 male mice (ddY strain, approximately 20 g) was intravenously infected with 6 LD50 of Staphylococcus aureus No. 50774 in 0.85% saline. The test compounds were each suspended in 0.2% carboxymethyl cellulose and administered orally in graded doses (200, 100, 50, 25, 12.5, 6.3, 3.1 mg/kg, etc.) to the infected mice twice, about 5 minutes and 6 hours after infection. Survival rates were determined after 2 weeks and the ED50 was calculated in accordance with Probit method.
(3) In vivo efficacy against the intraperitoneal infection of mice by Streptococcus pyogenes A65
Each group of 8 male mice (ddY strain, approximately 20 g) was intraperitoneally infected with 4 LD50 of Streptococcus pyogenes A65 suspended in Brain Heart Infusion Broth. The subsequent procedures were the same as those described in (2).

[4] = system: Streptococcus pyogenes A65; test: In vitro antibacterial activity (MIC), Streptococcus pyogenes A65; assay type: cell-based; details: Brain Heart Infusion Broth pH 7.4, 37° C., 48 hours
Protocol: as §1, §2

[5] = system: Salmonella typhimurium S-9; test: In vitro antibacterial activity (MIC), Salmonella typhimurium S-9; assay type: cell-based; details: Salmonella enterica
Protocol: as §1, §2

Staphylococcus aureus [6] = details: compounds of U.S. Pat. Nos. 3,887,557 and 3,950,338; cited from earlier work; remark: listed apart in the source
Escherichia coli K-12 = test: In vitro antibacterial activity (MIC), Escherichia coli K-12; assay type: cell-based
Protocol: as §1, §2

Escherichia coli P-5101 [7] = test: In vitro antibacterial activity (MIC), Escherichia coli P-5101; assay type: cell-based
Protocol: as §1, §2

Proteus vulgaris OX-19 = test: In vitro antibacterial activity (MIC), Proteus vulgaris OX-19; assay type: cell-based
Protocol: as §1, §2

[8] = system: Staphylococcus aureus Terajima; test: In vitro antibacterial activity (MIC), Staphylococcus aureus Terajima; assay type: cell-based
Protocol: as §1, §2

[9] = system: Staphylococcus aureus No. 10; test: In vitro antibacterial activity (MIC), Staphylococcus aureus No. 10; assay type: cell-based
Protocol: as §1, §2

[10] = system: Staphylococcus aureus No. 50774; test: In vivo efficacy against the intravenous infection of mice by Staphylococcus aureus No. 50774; details: NO.50774, 336 h, male ddY mice, iv infection 6 LD50, oral, twice (5 minutes and 6 hours after infection), survival after 2 weeks
Protocol: (2) in vivo efficacy against the intravenous infection of mice by Staphylococcus aureus No. 50774
as §3

[11] = system: Gram-positive and Gram-negative bacteria; test: Antibacterial activity against Gram-positive and Gram-negative bacteria (summary statement); details: in words
in vivo = details: mouse, in vivo, female ddY mice, Behrens-Kaerber method
Description: (§4) (5) acute toxicity in mice
(§5) Female ddY strain mice, weighing 25 to 33 g, were used. Test compounds were suspended in 0.2% carboxymethyl cellulose for oral administration, and dissolved in NaOH solution (final pH 8.8-9.2) for intravenous administration.

mice = test: in vivo
Description: as §4, §5

Escherichia coli P-5101 [12] = test: In vivo efficacy against the intraperitoneal infection of mice by Escherichia coli p-5101; details: P5101, 336 h, male ddY mice, ip infection 9 LD50, 4% gastric mucin, oral, twice (5 minutes and 6 hours after infection), survival after 2 weeks
Protocol: as §3
(4) in vivo efficacy against the intraperitoneal infection of mice by Escherichia coli p-5101
Each group of 8 male mice (ddY strain, approximately 20 g) was intraperitoneally infected with 9 LD50 of Escherichia coli p-5101 suspended in Trypto-Soy Broth supplemented with 4% gastric mucin. The subsequent procedures were the same as those described in (2).

Staphylococcus aureus [13] = details: Antimicrob. Agents Chemother.; cited from earlier work
[14] = Staphylococcus aureus, NO.50774, 48 h, pH 7
[15] = Escherichia coli, K12, 48 h, pH 7
[16] = P5101, Escherichia coli P-5101, nutrient broth pH 7.0, 37° C., 48 hours, read-out: MIC
[17] = Proteus vulgaris, OX19, 48 h, pH 7
[18] = Staphylococcus aureus Terajima, nutrient broth pH 7.0, 37° C., 48 hours, read-out: MIC
[19] = Staphylococcus aureus No. 10, nutrient broth pH 7.0, 37° C., 48 hours, read-out: MIC
[20] = OX19, Proteus vulgaris OX-19, nutrient broth pH 7.0, 37° C., 48 hours, read-out: MIC
[21] = K12, Escherichia coli K-12, nutrient broth pH 7.0, 37° C., 48 hours, read-out: MIC
[22] = oral, 7 days, read-out: LD50 (oral administration)
[23] = Escherichia coli, P5101, 48 h, pH 7
[24] = Staphylococcus aureus No. 50774, nutrient broth pH 7.0, 37° C., 48 hours, read-out: MIC

| Structure (SMILES) | in vivo activities against Staphylococcus aureus (Staphylococcus aureus [1]) | MIC [2, 14] [µg/mL] | MIC (Shigella sonnei EW33) [µg/mL] | ED50 [3] [mg/kg] | MIC [4] [µg/mL] | MIC ([5]; TYPHIMURIUM, 48 h, pH 7) [µg/mL] | in vitro activities against Staphylococcus aureus (Staphylococcus aureus [6]) | MIC (Escherichia coli K-12; [15]) [µg/mL] | MIC (Escherichia coli P-5101 [7]; [16]) [µg/mL] | MIC (Proteus vulgaris OX-19; [17]) [µg/mL] | MIC [8, 18] [µg/mL] | MIC [9, 19] [µg/mL] | ED50 [10] [mg/kg] | MIC (Proteus vulgaris OX-19; [20]) [µg/mL] | MIC (Escherichia coli K-12; [21]) [µg/mL] | LD50 at 168 h (in vivo; [22]) [mg/kg] | MIC (Escherichia coli P-5101 [7]; [23]) [µg/mL] | ED50 (Escherichia coli P-5101 [12]) [mg/kg] | MIC [2, 24] [µg/mL] | effect on systemic infection by Staphylococcus aureus (Staphylococcus aureus [13]) | other results |
| --- | --- | --- | --- | --- | --- | --- | --- | --- | --- | --- | --- | --- | --- | --- | --- | --- | --- | --- | --- | --- | --- |
| CCn1cc(C(=O)O)c(=O)c2cnc(N3CCN(Cc4ccccc4)CC3)nc21 [Compound 1, 2-(4-Benzyl-1-piperazinyl)-8-ethyl-5,8-dihydro-5-oxopyrido[2,3-d]-pyrimidine-6-carboxylic acid] | weak | 3 (≈ 7.62 µM) | 3 (≈ 7.62 µM) | > 100 | 100 (≈ 254 µM) | 3 (≈ 7.62 µM) | relatively strong | 3 (≈ 7.62 µM) | 10 (≈ 25.4 µM) | 3 (≈ 7.62 µM) | 10 (≈ 25.4 µM) | 10 (≈ 25.4 µM) | ~50 | – | – | – | – | – | – | – | – |
| CCn1cc(C(=O)O)c(=O)c2cnc(N3CCN(Cc4ccc(OC)cc4)CC3)nc21 [Compound 2, 2-[4-(p-Methoxybenzyl)-1-piperazinyl]-8-ethyl-5,8-dihydro-5-oxopyrido[2,3-d]pyrimidine-6-carboxylic acid] | weak | 3 (≈ 7.08 µM) | 3 (≈ 7.08 µM) | > 100 | 100 (≈ 236 µM) | 3 (≈ 7.08 µM) | relatively strong | 3 (≈ 7.08 µM) | 10 (≈ 23.6 µM) | – | 10 (≈ 23.6 µM) | 10 (≈ 23.6 µM) | 54.5 | 10 (≈ 23.6 µM) | – | – | – | – | – | – | – |
| CCn1cc(C(=O)O)c(=O)c2cnc(N3CCN(Cc4ccc(Cl)cc4)CC3)nc21 [Compound 3, 2-[4-(p-Chlorobenzyl)-1-piperazinyl]-8-ethyl-5,8-dihydro-5-oxopyrido[2,3-d]pyrimidine-6-carboxylic acid] | weak | 3 (≈ 7.01 µM) | 3 (≈ 7.01 µM) | > 100 | 30 (≈ 70.1 µM) | – | relatively strong | – | 30 (≈ 70.1 µM) | – | 10 (≈ 23.4 µM) | 10 (≈ 23.4 µM) | > 100 | 10 (≈ 23.4 µM) | 10 (≈ 23.4 µM) | – | – | – | – | – | MIC ([5]; Salmonella typhimurium S-9, nutrient broth pH 7.0, 37° C., 48 hours, read-out: MIC): 10 µg/mL (≈ 23.4 µM) |
| CCn1cc(C(=O)O)c(=O)c2cnc(N3CCN(Cc4ccc(N)cc4)CC3)nc21 [Compound AT-1826, 2-[4-(p-Aminobenzyl)-1-piperazinyl]-8-ethyl-5,8-dihydro-5-oxopyrido[2,3-d]pyrimidine-6-carboxylic acid] | – | 1 (≈ 2.45 µM) | 1 (≈ 2.45 µM) | 47.7 | 30 (≈ 73.4 µM) | 3 (≈ 7.34 µM) | – | 1 (≈ 2.45 µM) | – | 3 (≈ 7.34 µM) | – | – | 7.2 | – | – | > 2000 | 3 (≈ 7.34 µM) | 35.6 | – | – | antibacterial activities against Gram-positive and Gram-negative bacteria [11]: excellent antibacterial activities; LD50 at 168 h (in vivo; iv, NaOH solution final pH 8.8-9.2, 7 days, read-out: LD50 (intravenous administration)): 354 mg/kg; toxicity (mice; in words): low toxicity; MIC ([8]; Staphylococcus aureus, 48 h, pH 7): 3 µg/mL (≈ 7.34 µM); MIC ([9]; Staphylococcus aureus, NO.10, 48 h, pH 7): 3 µg/mL (≈ 7.34 µM) |
| CCn1cc(C(=O)O)c(=O)c2cnc(N3CCCC3)nc21 [Compound PA, 2-pyrrolidino-8-ethyl-5,8-dihydro-5-oxopyrido [2,3-d]pyrimidine-6-carboxylic acid] | – | – | 3 (≈ 10.4 µM) | > 100 | 300 (≈ 1040 µM) | 3 (≈ 10.4 µM) | – | – | 10 (≈ 34.7 µM) | – | 10 (≈ 34.7 µM) | 10 (≈ 34.7 µM) | > 200 | 1 (≈ 3.47 µM) | 1 (≈ 3.47 µM) | > 2000 | – | 36.6 | 10 (≈ 34.7 µM) | only extremely weak effect | LD50 (intravenous administration) (mice; female ddY mice, iv, NaOH solution final pH 8.8-9.2, 7 days, Behrens-Kaerber method): 268 mg/kg |
| CCn1cc(C(=O)O)c(=O)c2cnc(N3CCNCC3)nc21 [Compound PPA, 2-(1-piperazinyl)-8-ethyl-5,8-dihydro-5-oxopyrido [2,3-d]pyrimidine-6-carboxylic acid] | – | – | 1 (≈ 3.3 µM) | > 100 | 100 (≈ 330 µM) | 1 (≈ 3.3 µM) | – | 1 (≈ 3.3 µM) | – | 3 (≈ 9.89 µM) | 30 (≈ 98.9 µM) | 10 (≈ 33 µM) | 238 | – | – | – | 1 (≈ 3.3 µM) | 21.2 | 10 (≈ 33 µM) | only extremely weak effect | – |
